The text below walks through data of patent US7129036B1, “Reporter molecules and methods for assaying the lipidations status of a cell” (Tibotec BVBA, priority 1999, dated 2006).

Type in all cases: cell-based
One test addresses T1, farnesyl transferase (Homo sapiens, UniProt P49354+P49356).
T1 construct: endogenous in cells; host or cells: K562 cells transduced with LNC-EGFP-RasF reporter
Description: Farnesyl transferase inhibition assay (EGFP-RasF membrane localization by fluorescence microscopy). The protocol:
The idea was to target EGFP to the plasma membrane by using a farnesylation signal sequence. […] The last 20 amino acids of c-Ha-Ras provides farnesylation and palmitoylation for targeting the Ras protein to the plasma membrane. We fused the C-terminal membrane targeting signal sequence of the human c-Ha-ras1 (J00277, NCBI) to the C-terminal end of EGFP (Clontech).
Twenty amino acids of the C-terminal end of c-Ha-ras 1 located in exon 4 were added to the C-terminus of the EGFP coding sequence by polymerase chain reaction (PCR) cloning.
The amphotropic packaging cell line PT67 (Clontech) was transfected (Pfx-2, Invitrogen) with pLNC-EGFP-(DEVD)-RasF and selected in 400 μg/ml G418. […] Gene transfer referred to as transduction in K562 and MT4 cells was easily observed by fluorescence microscopy.
(§1) K562 (MT4) cells were separated from PT67-pLNC-EGFP-(DEVD)-RasF and Non transduced K562 (MT4) cells were removed by selection in 400 μg/ml G418. The remaining fluorescent K562 (MT4) cells were directly cloned in 96 well plates by fluorescence activated cell sorting using an automatic cell deposit unit. […] Two weeks later, appropriate clones were selected by visual inspection using a fluorescence microscope and designated K562-LNC-EGFP-RasF or MT4-LNC-EGFP-(DEVD)-RasF. […]
In cells expressing EGFP without a farnesylation signal sequence, fluorescence is observed throughout the cell. […]

The next test deals with caspase 3. As to the kind of experiment: Caspase 3 activity with fluorogenic Ac-DEVD-AMC substrate. The conditions noted are these: MT4 cells, Ac(N-acetyl)-DEVD-AMC substrate, results not shown.
Another test concerns MT4-LNC-EGFP-RasF cells. Description: Control without DEVD cleavage site (EGFP-RasF membrane targeting by fluorescence microscopy). The conditions noted are these: 4 h, FIG. 4B. The protocol:
The amphotropic packaging cell line PT67 (Clontech) was transfected (Pfx-2, Invitrogen) with pLNC-EGFP-(DEVD)-RasF and selected in 400 μg/ml G418. In the surviving colonies, transcription occurs from (a) stably integrated plasmid(s) pLNC-EGFP-(DEVD)RasF. The resulting LNC-EGFP-(DEVD)-RasF mRNA is translated into EGFP-(DEVD)-RasF and the neomycin resistance protein and is also packaged into replication incompetent virions. Thus, the PT67-pLNC-EGFP-(DEVD)-RasF constitutively produces viral particles, able to transmit the EGFP-(DEVD)-RasF and the neomycin resistance gene at the same time. These amphotropic virions give the flexibility to rapidly develop novel cell lines stably expressing EGFP-(DEVD)-RasF proteins. […] Gene transfer referred to as transduction in K562 and MT4 cells was easily observed by fluorescence microscopy.
as §1

In test [1] the test system is caspase 3 and/or caspase 7. As to the kind of experiment: Caspase assay (EGFP-DEVD-RasF membrane targeting by fluorescence microscopy). As to conditions: MT4-LNC-EGFP-DEVD-RasF cells, 10 μM, 4 h, FIG. 3B. The protocol:
For the apoptosis construct, the same primer was used except that a sequence encoding DEVD (i.e. caspase 3 and 7 cleavage site) was included between EGFP and the Ras plasmamembrane targeting signal sequence (SEQ ID NO 4 and SEQ ID NO 5).
The amphotropic packaging cell line PT67 (Clontech) was transfected (Pfx-2, Invitrogen) with pLNC-EGFP-(DEVD)-RasF and selected in 400 μg/ml G418. In the surviving colonies, transcription occurs from (a) stably integrated plasmid(s) pLNC-EGFP-(DEVD)RasF. The resulting LNC-EGFP-(DEVD)-RasF mRNA is translated into EGFP-(DEVD)-RasF and the neomycin resistance protein and is also packaged into replication incompetent virions. […] Gene transfer referred to as transduction in K562 and MT4 cells was easily observed by fluorescence microscopy.
as §1

Each structure is given as a SMILES string. Entries after “also recorded” stand apart in the source; their conditions may differ.

Regarding `CSCC[C@H](NC(=O)c1ccc(NC[C@@H](N)CS)cc1-c1ccccc1)C(=O)O` [FTI-276], the EGFP membrane localization entry on farnesyl transferase (K562 LNC-EGFP-RasF cells, 5 μM, FIG. 2) is on record as “disruption of membrane localization”. In addition, at farnesyl transferase (K562 cells, high enough concentrations (>5 μM)), the EGFP compartmentalisation result was “almost completely disappears”.

Consider `CN[C@@H]1C[C@H]2O[C@@](C)([C@@H]1OC)n1c3ccccc3c3c4c(c5c6ccccc6n2c5c31)C(=O)NC4` [staurosporin], for which the “caspase 3 activity” value in the test with caspase 3 was “induced caspase 3 activity”. In addition, the “translocation of EGFP” value in the test with MT4-LNC-EGFP-RasF cells (MT4-LNC-EGFP-RasF cells lacking DEVD site) was “no prominent translocation of EGFP occurs; also recorded: did not result in marked translocation of EGFP”. For the same molecule, the cell morphology result with MT4-LNC-EGFP-RasF cells (MT4-LNC-EGFP-RasF cells) was “affects the cells morphology within hours; also recorded: altered cell morphology”. The EGFP membrane targeting entry in test [1] is “partially disappears; also recorded: reduced EGFP membrane targeting”.
